Results reported in ChEMBL document CHEMBL3390848, “Affinity selection and sequence-activity relationships of HIV-1 membrane fusion inhibitors directed at the drug-resistant variants” (Medchemcomm, 2010).
pEC50: −log10 of the molar value. Residues, ends and D or L forms follow the SMILES beside them.

Assays:
[1] = tested on: Human immunodeficiency virus 1; test: Binding affinity to HIV1 His-tagged N-terminal heptad repeat of envelope glycoprotein gp41 assessed as recovery of N36-drug complex at 1 uM after 2 hrs by LC-MS analysis
[2] = tested on: Human immunodeficiency virus 1; test: Binding affinity to HIV1 His-tagged N-terminal heptad repeat of envelope glycoprotein gp41 assessed as recovery of N36-drug complex at 10 uM after 2 hrs by LC-MS analysis
[3] = tested on: Human immunodeficiency virus 1; test: Thermal stability of HIV1 envelope glycoprotein gp41 His-tagged N-terminal heptad repeat N36-drug complex assessed as thermal unfolding transition state by measuring molar ellipticity at 4 to 90 degC by circular dichroic spectra analysis
[4] = tested on: Human immunodeficiency virus 1; test: Binding affinity to HIV1 His-tagged N-terminal heptad repeat of envelope glycoprotein gp41 assessed as recovery of N36-drug complex at 6 uM after 2 hrs by LC-MS analysis
[5] = tested on: Human immunodeficiency virus 1; test: Binding affinity to HIV1 His-tagged N-terminal heptad repeat of envelope glycoprotein gp41 assessed as recovery of N36-drug complex at 0.6 uM after 2 hrs by LC-MS analysis
[6] = tested on: Human immunodeficiency virus 1; test: Antiviral activity against HIV1 NL4-3 harboring gp41 D36G mutant infected in human HeLa cells expressing CD4-LTR-beta-gal assessed as inhibition of viral replication after 48 hrs by MAGI assay; type: functional, organism-based

| SMILES | Activity [1] [%] | Activity [2] [%] | Tm [3] [°C] | Activity [4] [%] | Activity [5] [%] | pEC50 [6] |
| --- | --- | --- | --- | --- | --- | --- |
| CC[C@H](C)[C@H](NC(=O)[C@H](CC(C)C)NC(=O)[C@H](CCC(=O)O)NC(=O)[C@H](CCC(=O)O)NC(=O)[C@@H](NC(=O)[C@H](CCCCN)NC(=O)[C@H](CCCCN)NC(=O)[C@@H](NC(=O)[C@H](Cc1ccc(O)cc1)NC(=O)[C@H](CCC(=O)O)NC(=O)[C@H](CCC(=O)O)NC(=O)[C@@H](NC(=O)[C@H](CCCCN)NC(=O)[C@H](CCCCN)NC(=O)[C@H](CC(=O)O)NC(=O)[C@H](Cc1c[nH]c2ccccc12)NC(=O)[C@H](CCC(=O)O)NC(=O)[C@H](CCC(=O)O)NC(=O)[C@H](Cc1c[nH]c2ccccc12)NC(C)=O)[C@@H](C)CC)[C@@H](C)O)[C@@H](C)CC)C(=O)N[C@@H](CCCCN)C(=O)N[C@@H](CCCCN)C(=O)NCC(=O)N[C@@H](CCC(=O)O)C(=O)N[C@@H](CCC(=O)O)C(=O)N[C@@H](CCC(N)=O)C(=O)N[C@@H](CCC(N)=O)C(=O)N[C@@H](CCCCN)C(=O)N[C@@H](CCCCN)C(=O)N[C@@H](CC(N)=O)C(=O)N[C@@H](CCC(=O)O)C(=O)N[C@@H](CCC(=O)O)C(=O)N[C@@H](CCC(=O)O)C(=O)N[C@@H](CC(C)C)C(=O)N[C@@H](CCCCN)C(=O)N[C@@H](CCCCN)C(N)=O (Ac-WEEWDKKIEEYTKKIEELIKKGEEQQKKNEEELKK-NH2) | 11.6 | 13.8 | 79.1 | 14.4 | 5.9 | 8.72 |
| CC[C@H](C)[C@H](NC(=O)[C@H](CC(C)C)NC(=O)[C@H](CCC(=O)O)NC(=O)[C@H](CCC(=O)O)NC(=O)[C@@H](NC(=O)[C@H](CCCCN)NC(=O)[C@H](CCCCN)NC(=O)[C@@H](NC(=O)[C@H](Cc1ccc(O)cc1)NC(=O)[C@H](CCC(=O)O)NC(=O)[C@H](CCC(=O)O)NC(=O)[C@@H](NC(=O)[C@H](CCCCN)NC(=O)[C@H](CCCCN)NC(=O)[C@H](CC(=O)O)NC(=O)[C@H](Cc1c[nH]c2ccccc12)NC(=O)[C@H](CCC(=O)O)NC(=O)[C@H](CCC(=O)O)NC(=O)[C@H](Cc1c[nH]c2ccccc12)NC(C)=O)[C@@H](C)CC)[C@@H](C)O)[C@@H](C)CC)C(=O)N[C@@H](CCCCN)C(=O)N[C@@H](CCCCN)C(=O)N[C@@H](CCSC)C(=O)N[C@@H](CCC(=O)O)C(=O)N[C@@H](CCC(=O)O)C(=O)N[C@@H](CCC(N)=O)C(=O)N[C@@H](CCC(N)=O)C(=O)N[C@@H](CCCCN)C(=O)N[C@@H](CCCCN)C(=O)N[C@@H](CC(N)=O)C(=O)N[C@@H](CCC(=O)O)C(=O)N[C@@H](CCC(=O)O)C(=O)N[C@@H](CCC(=O)O)C(=O)N[C@@H](CC(C)C)C(=O)N[C@@H](CCCCN)C(=O)N[C@@H](CCCCN)C(N)=O (Ac-WEEWDKKIEEYTKKIEELIKKMEEQQKKNEEELKK-NH2) | 12.5 | 8.9 | 84.1 | 13.3 | 6.8 | 9.17 |
| CC[C@H](C)[C@H](NC(=O)[C@H](CC(C)C)NC(=O)[C@H](CCC(=O)O)NC(=O)[C@H](CCC(=O)O)NC(=O)[C@@H](NC(=O)[C@H](CCCCN)NC(=O)[C@H](CCCCN)NC(=O)[C@@H](NC(=O)[C@H](Cc1ccc(O)cc1)NC(=O)[C@H](CCC(=O)O)NC(=O)[C@H](CCC(=O)O)NC(=O)[C@@H](NC(=O)[C@H](CCCCN)NC(=O)[C@H](CCCCN)NC(=O)[C@H](CC(=O)O)NC(=O)[C@H](Cc1c[nH]c2ccccc12)NC(=O)[C@H](CCC(=O)O)NC(=O)[C@H](CCC(=O)O)NC(=O)[C@H](Cc1c[nH]c2ccccc12)NC(C)=O)[C@@H](C)CC)[C@@H](C)O)[C@@H](C)CC)C(=O)N[C@@H](CCCCN)C(=O)N[C@@H](CCCCN)C(=O)N[C@@H](CCC(=O)O)C(=O)N[C@@H](CCC(=O)O)C(=O)N[C@@H](CCC(=O)O)C(=O)N[C@@H](CCC(N)=O)C(=O)N[C@@H](CCC(N)=O)C(=O)N[C@@H](CCCCN)C(=O)N[C@@H](CCCCN)C(=O)N[C@@H](CC(N)=O)C(=O)N[C@@H](CCC(=O)O)C(=O)N[C@@H](CCC(=O)O)C(=O)N[C@@H](CCC(=O)O)C(=O)N[C@@H](CC(C)C)C(=O)N[C@@H](CCCCN)C(=O)N[C@@H](CCCCN)C(N)=O (Ac-WEEWDKKIEEYTKKIEELIKKEEEQQKKNEEELKK-NH2) | 1.8 | 1.3 | 66.2 | 1 | 5.1 | 7.82 |
| CC[C@H](C)[C@H](NC(=O)[C@H](CC(C)C)NC(=O)[C@H](CCC(=O)O)NC(=O)[C@H](CCC(=O)O)NC(=O)[C@@H](NC(=O)[C@H](CCCCN)NC(=O)[C@H](CCCCN)NC(=O)[C@@H](NC(=O)[C@H](Cc1ccc(O)cc1)NC(=O)[C@H](CCC(=O)O)NC(=O)[C@H](CCC(=O)O)NC(=O)[C@@H](NC(=O)[C@H](CCCCN)NC(=O)[C@H](CCCCN)NC(=O)[C@H](CC(=O)O)NC(=O)[C@H](Cc1c[nH]c2ccccc12)NC(=O)[C@H](CCC(=O)O)NC(=O)[C@H](CCC(=O)O)NC(=O)[C@H](Cc1c[nH]c2ccccc12)NC(C)=O)[C@@H](C)CC)[C@@H](C)O)[C@@H](C)CC)C(=O)N[C@@H](CCCCN)C(=O)N[C@@H](CCCCN)C(=O)N[C@@H](CC(=O)O)C(=O)N[C@@H](CCC(=O)O)C(=O)N[C@@H](CCC(=O)O)C(=O)N[C@@H](CCC(N)=O)C(=O)N[C@@H](CCC(N)=O)C(=O)N[C@@H](CCCCN)C(=O)N[C@@H](CCCCN)C(=O)N[C@@H](CC(N)=O)C(=O)N[C@@H](CCC(=O)O)C(=O)N[C@@H](CCC(=O)O)C(=O)N[C@@H](CCC(=O)O)C(=O)N[C@@H](CC(C)C)C(=O)N[C@@H](CCCCN)C(=O)N[C@@H](CCCCN)C(N)=O (Ac-WEEWDKKIEEYTKKIEELIKKDEEQQKKNEEELKK-NH2) | 0 | 0.7 | 59.7 | 0 | 4.3 | 7.82 |
| CC[C@H](C)[C@H](NC(=O)[C@H](CCCCN)NC(=O)[C@H](CCCCN)NC(=O)[C@H](CC(=O)O)NC(=O)[C@H](Cc1c[nH]c2ccccc12)NC(=O)[C@H](CCC(=O)O)NC(=O)[C@H](CCC(=O)O)NC(=O)[C@H](Cc1c[nH]c2ccccc12)NC(C)=O)C(=O)N[C@@H](CCC(=O)O)C(=O)N[C@@H](CCC(=O)O)C(=O)N[C@@H](Cc1ccc(O)cc1)C(=O)N[C@H](C(=O)N[C@@H](CCCCN)C(=O)N[C@@H](CCCCN)C(=O)N[C@H](C(=O)N[C@@H](CCC(=O)O)C(=O)N[C@@H](CCC(=O)O)C(=O)N[C@@H](CC(C)C)C(=O)N[C@H](C(=O)N[C@@H](CCCCN)C(=O)N[C@@H](CCCCN)C(=O)N[C@H](C(=O)N[C@@H](CCC(=O)O)C(=O)N[C@@H](CCC(=O)O)C(=O)N[C@@H](CCC(N)=O)C(=O)N[C@@H](CCC(N)=O)C(=O)N[C@@H](CCCCN)C(=O)N[C@@H](CCCCN)C(=O)N[C@@H](CC(N)=O)C(=O)N[C@@H](CCC(=O)O)C(=O)N[C@@H](CCC(=O)O)C(=O)N[C@@H](CCC(=O)O)C(=O)N[C@@H](CC(C)C)C(=O)N[C@@H](CCCCN)C(=O)N[C@@H](CCCCN)C(N)=O)[C@@H](C)CC)[C@@H](C)CC)[C@@H](C)CC)[C@@H](C)O (Ac-WEEWDKKIEEYTKKIEELIKKIEEQQKKNEEELKK-NH2) | 11.3 | 4.7 | 84.6 | 7.6 | 6.9 | 8.89 |
